The target in experiment [1] is PLpro (Severe acute respiratory syndrome coronavirus 2, UniProt P0DTD1). Kind of experiment: IC50 test against PLpro (selectivity check for quinones). It counts as biochemical, SARS-CoV-2. The following applies: Supplementary Figure S4; for specificity of Mpro inhibition: conclusion from PLpro counter-test; for selectivity Mpro versus PLpro: quinones tested on PLpro.

Experiment [2] deals with SARS-CoV-2 Mpro (Severe acute respiratory syndrome coronavirus 2, UniProt P0DTD1). In words: biochemical.

Consider three compounds from PMC8892251, “An Enhanced Hybrid Screening Approach to Identify Potent Inhibitors for the SARS-CoV-2 Main Protease From the NCI Compound Library” (Frontiers in Chemistry, 2022).

Molecules are shown by their SMILES. Several values for one entry are separate records, joined by “and”; a condition that tells them apart may be missing. Equal values may be shown once. Read-outs that look alike come from different tables or passages of the source.

Take `CC1=C(N=[N+]=[N-])C(=O)C(C)=C(N=[N+]=[N-])C1=O` [Compound 88]: in experiment [1], the “specificity of Mpro inhibition” value is listed as “specifically inhibit the activity of Mpro” and the “selectivity Mpro versus PLpro” value is “more selective on Mpro than PLpro”. Besides, in experiment [2] (IC50), the IC50 stood at 723 nM.

As for `O=C1C=C/C(=N\c2nc3c4ccccc4c4ccccc4c3[nH]2)c2ccccc21` [Compound 112], the “selectivity Mpro versus PLpro” value in experiment [1] is “more selective on Mpro than PLpro”. Further, the IC50 in experiment [2] (IC50) was 1690 nM and 1700 nM.

`O=C1C=CC(=O)c2c1ncc1c2nc2sccn21` [Compound 110]: in experiment [1], the “specificity of Mpro inhibition” value is “specifically inhibit the activity of Mpro” and the “selectivity Mpro versus PLpro” value was “more selective on Mpro than PLpro”. In experiment [2] (Mpro, Figure 5, triplicate experiments, read-out: IC50), the IC50 was determined as 705 nM. For the same compound, the IC50 in experiment [2] (Mpro, read-out: IC50) is 705 nM.
